Laboratory results published in patent US6410751B1, “Water soluble tri-substituted 1, 2-dioxetane compounds having increased storage stability, synthetic processes and intermediates” (Lumigen, Inc., priority 1995, dated 2002).
Read-outs that look alike come from different tables or passages of the source.

Legend:
[1] = Storage stability of dioxetane formulations measured by chemiluminescent enzyme assay; assay type: physicochemical; settings: for % of Dioxetane Remaining: 0.5 mM dioxetane formulation pH 10, temperature not given (FIG. 5: 25° C.)
Text: Storage stability is related to the rate of decomposition of the dioxetane due to spontaneous reaction and is an intrinsic property. Decomposition of triggerable dioxetanes can also be induced by the presence of trace quantities of agents which catalyze the removal of a protecting group and thus initiate the decomposition. Storage stability of a dioxetane can be assessed by measuring the quantity of dioxetane present in a known sample at periodic intervals. The measurement can take any form known which measures a property relatable to the quantity of dioxetane. Techniques such as spectrophotometry, NMR spectrometry and the like are exemplary. A convenient means is to measure the amount of light produced by reacting a known quantity of dioxetane with a triggering agent under a standard set of conditions. A decrease in the amount or intensity of light emitted signals a loss of dioxetane compound.
A fluoro-substituted analog of dioxetane 1, identified as 3, a chloro-substituted analog 4 and a methyl-substituted analog 5 have been prepared and their storage stability evaluated over several weeks. Storage stability of a solution of 1 was measured for comparison. All solutions were prepared with the same composition, differing only in the identity of the dioxetane. Stability was evaluated by chemiluminescent enzyme assay with a fixed volume of test solution and fixed limiting amount of alkaline phosphatase and measuring the plateau light intensity at 25° C.
Formulations comprising 0.1 mg/mL Enhancer A, 0.88 mM Mg^+2 , 0.2 M 2-amino-2-methyl-1-propanol, pH 10, 0.1% Triton X-100 and 0.5 mM dioxetane 1, 3, 4 and 5, respectively, were prepared and stored in opaque polyethylene bottles at 4° C., 25° C. and 40° C. Twenty four 100 μL aliquots from each bottle were pipetted into the wells of a 96 well plate and the solutions incubated at 37° C. Into each well 10 μL solutions containing 8×10^−17 moles of AP were injected and light intensity integrated over five hours. Data are the average of all 24 wells. The experiment was repeated at the indicated time intervals for each dioxetane. The results in FIG. 5 show the comparative stability of the three formulations at 25° C.

[2] = Enhancement of luminescent signal of a reagent based on dioxetane 1 by enhancers and fluorescers; settings: for Factor of increase of luminescent signal: reagent based on dioxetane 1; for Enhancement Factor: 1 mg/mL Enhancer A
Text: As part of the optimization of a reagent based on dioxetane 1, a number of enhancer materials was examined. At pH 9.6, Enhancer A (1-trioctylphosphoniummethyl-4-tributylphosphoniummethylbenzene dichloride) increased the luminescent signal by a factor of 6.2, and Enhancer B (poly(vinylbenzyltributylphosphonium chloride)) increased the signal by a factor of 19.7. At pH 10.0, Enhancer A increased the signal by a factor of 4.8, and Enhancer B increased the signal by a factor of 18.9.
Tables 2 and 3 show the extent of enhancement by pyranine and fluorescein, respectively, in the presence of 1 mg/mL of Enhancer A.

[3] = Reagent carryover in capsule chemistry analysis system (TECHNICON IMMUNO 1 TSH method, luminescence detection); settings: R3 reagent with 0.2 mM CSPD; 3 mM pyranine omitted from test N only
Protocol: The experiments described below were performed on a prototype capsule chemistry analysis system essentially as described by Kumar et al in U.S. Pat. No. 5,399,497, with the detection system configured to measure light emission (luminescence). The method and apparatus comprises feeding a stream of fluid segments through a Teflon tube, where the tube has an isolating layer of fluorocarbon oil on the inner surface. Sample and reagents are aspirated into this tube, and the resulting liquid segments are moved through the tube. […] The detection system was comprised of a photon counter and a fiber optic read head, in which the fibers were radially arranged around the Teflon tube to maximize the efficiency of light collection.
The TECHNICON IMMUNO 1® TSH method (Bayer Corporation, Tarrytown, N.Y., USA) was used as a representative immunoassay method for the testing of luminogenic reagents. […] The particles were then exposed to the luminogenic reagent, which contained a substrate for ALP, and luminescence was measured.
R1 (10.4 μl of serum-based solution containing fluorescein-labeled antibody to TSH), R2 (10.4 μl of serum-based solution containing antibody to TSH conjugated with ALP) and S (7.2 μl of serum sample) were aspirated into the second segment. […] The fifth segment was R3, of the composition described above, with the key elements being the luminogenic substrate and the luminescence enhancer. […]

alkaline phosphatase = assay: Performance of detection reagent in assays for AP in the capsule chemistry test system; assay type: biochemical; settings: fluorescein-labeled alkaline phosphatase conjugate captured onto magnetic particles
Protocol: The experiments described below were performed on a prototype capsule chemistry analysis system essentially as described by Kumar et al in U.S. Pat. No. 5,399,497, with the detection system configured to measure light emission (luminescence). The method and apparatus comprises feeding a stream of fluid segments through a Teflon tube, where the tube has an isolating layer of fluorocarbon oil on the inner surface. Sample and reagents are aspirated into this tube, and the resulting liquid segments are moved through the tube. Separation steps and washing steps which are required by heterogeneous immunoassay methods were facilitated by means of magnets, which transferred magnetic particles from one aqueous segment to another. The detection system was comprised of a photon counter and a fiber optic read head, in which the fibers were radially arranged around the Teflon tube to maximize the efficiency of light collection.
A detection reagent incorporating dioxetane 3 was evaluated in a test system as described in Example 7. The test material was a fluorescein-labeled alkaline phosphatase conjugate which was captured onto the magnetic particles.

[4] = aqueous solutions, 25° C., four weeks

In the case of `O=C([O-])C(CCOC1(c2cccc(OP(=O)([O-])[O-])c2)OOC12C1CC3CC(C1)CC2C3)C(=O)[O-].[Na+].[Na+].[Na+].[Na+]` (centres unmarked) [Dioxetane 1], the “% of Dioxetane Remaining” value ([1]; 0 wks) is reported as 100%, the “% of Dioxetane Remaining” value ([1]; 1 wk) is reported as 94.8% and the “% of Dioxetane Remaining” value ([1]; 2 wks) is reported as 91.1%. For the same compound, the “% of Dioxetane Remaining” value ([1]; 3 wks) was 87.5%, the “% of Dioxetane Remaining” value ([1]; 4 wks) was 84.1% and the “% of Dioxetane Remaining” value ([1]; 5 wks) was 81.8%. The “% of Dioxetane Remaining” value ([1]; 6 wks) was 80.7%, the “% of Dioxetane Remaining” value ([1]; 9 wks) was 76.5% and the “Decomposition on storage (in words)” value ([1]; alkaline buffer, 25° C., two weeks) was “significant decomposition”. For the same compound, the “Storage stability compared with other dioxetanes (in words)” value ([1]; aqueous buffer solutions, 25° C.) was “significantly less stable than a related compound, Lumigen PPD”.
With `CCCCCCCC[P+](CCCCCCCC)(CCCCCCCC)Cc1ccc(C[P+](CCCC)(CCCC)CCCC)cc1.[Cl-].[Cl-]` [Enhancer A, 1-trioctylphosphoniummethyl-4-tributylphosphoniummethylbenzene dichloride] the “Factor of increase of luminescent signal” value ([2]; pH 9.6) was 6.2 and the “Factor of increase of luminescent signal” value ([2]; pH 10.0) was 4.8.
For `O=S(=O)([O-])c1cc(O)c2ccc3c(S(=O)(=O)[O-])cc(S(=O)(=O)[O-])c4ccc1c2c34.[Na+].[Na+].[Na+]` [Pyranine], the “Enhancement Factor” value ([2]; 0.01 mM fluorescer) was 3.7, the “Enhancement Factor” value ([2]; 0.02 mM fluorescer) was 7.3 and the “Enhancement Factor” value ([2]; 0.03 mM fluorescer) was 9.8. The “Enhancement Factor” value ([2]; 0.04 mM fluorescer) was 12.2, the “Enhancement Factor” value ([2]; 0.05 mM fluorescer) was 13.7 and the “Enhancement by fluorescer alone” value ([2]; fluorescer 3 mM, without Enhancer A) was “about ten-fold”. The “Factor by which signal in test N was lower when the fluorescent enhancer was omitted” value [3] was “approximately 10”.
For “[4-(3,3-biscarboxy)-3-chloropropoxy)-4-(3-phosphoryloxyphenyl)]spiro[1,2-dioxetane-3,2′-tricyclo [3.3.1.1^3,7]decane], tetrasodium salt [Dioxetane 4]”, the “Storage stability compared with other dioxetanes (in words)” value [1] was “worse than that of 1”.
In the case of “[4-(3,3-biscarboxy)-3-fluoropropoxy)-4-(3-phosphoryloxyphenyl)]spiro[1,2-dioxetane-3,2′-tricyclo [3.3.1.1^3,7]decane], tetrasodium salt [Dioxetane 3]”, the “Decomposition on storage (in words)” value [1, 4] is reported as “essentially no decomposition” and the “Assay performance (sensitivity, dynamic range, precision) in words” value (alkaline phosphatase) is reported as “sensitivity, dynamic range and precision comparable to the results using dioxetane 1”.
With “[4-(3,3-biscarboxybutoxy)-4-(3-phosphoryloxyphenyl)]spiro[1,2-dioxetane-3,2′-tricyclo[3.3.1.1^3,7]-decane], tetrasodium salt [Dioxetane 5]” the “Decomposition on storage (in words)” value [1, 4] was “essentially no decomposition”.
